Test results from patent publication US11000033B2, “Ketone or oxime compound, and herbicide” (NISSAN CHEMICAL CORPORATION, priority 2014, dated 2021).

Tests used:
Assay type in all cases: in vivo
[1] = test system: Digitaria ciliaris; assay: Test Example 5: herbicidal effect by foliage application, plastic box (symbol F); settings: 320 g/ha, 3 weeks after application
From the text: (§1) Herbicidal Effect Test by Foliage Application
(§2) Sterilized diluvial soil was placed in a plastic box having a length of 21 cm, a width of 13 cm, and a depth of 7 cm. Each of the seeds of Digitaria ciliaris, Setaria viridis, Echinochloa crus-galli var. crus-galli, Avena fatua, Alopecurus myosuroides, Lolium multiflorum Lam., Apera spica-venti, Abutilon theophrasti, Amaranthus retroflexus, Chenopodium album, Stellaria media, Galium spurium, Veronica persica, corn, soybean, rice plant, wheat, beet, and rapeseed was sowed in a spot-like manner and was covered with the soil of a thickness of about 1.5 cm. Thereafter, the plants were grown in the greenhouse of 25° C. to 30° C. After the plants were grown for 14 days, the emulsion agent of the compound of the present invention prepared in accordance with Formulation Example 2 was diluted with water so as to be a predetermined herbicide amount and the diluted emulsion agent was uniformly applied to a foliage part with a small-size spray. 3 weeks later from the herbicide application, the effect to each plant was investigated in accordance with the criteria of Test Example 1.

[2] = test system: Setaria viridis; assay: Test Example 5: herbicidal effect by foliage application, plastic box (symbol G); settings: 320 g/ha, 3 weeks after application
From the text: as §1, §2

[3] = test system: Echinochloa crus-galli var. crus-galli; assay: Test Example 5: herbicidal effect by foliage application, plastic box (symbol H); settings: 320 g/ha, 3 weeks after application
From the text: as §1, §2

[4] = test system: Avena fatua; assay: Test Example 5: herbicidal effect by foliage application, plastic box (symbol I); settings: 320 g/ha, 3 weeks after application
From the text: as §1, §2

[5] = test system: Alopecurus myosuroides; assay: Test Example 5: herbicidal effect by foliage application, plastic box (symbol J); settings: 320 g/ha, 3 weeks after application
From the text: as §1, §2

[6] = test system: Lolium multiflorum Lam.; assay: Test Example 5: herbicidal effect by foliage application, plastic box (symbol K); settings: 320 g/ha, 3 weeks after application
From the text: as §1, §2

[7] = test system: Apera spica-venti; assay: Test Example 5: herbicidal effect by foliage application, plastic box (symbol L); settings: 320 g/ha, 3 weeks after application
From the text: as §1, §2

[8] = test system: Abutilon theophrasti; assay: Test Example 5: herbicidal effect by foliage application, plastic box (symbol M); settings: 320 g/ha, 3 weeks after application
From the text: as §1, §2

[9] = test system: Amaranthus retroflexus; assay: Test Example 5: herbicidal effect by foliage application, plastic box (symbol N); settings: 320 g/ha, 3 weeks after application
From the text: as §1, §2

[10] = test system: Chenopodium album; assay: Test Example 5: herbicidal effect by foliage application, plastic box (symbol O); settings: 320 g/ha, 3 weeks after application
From the text: as §1, §2

[11] = test system: Stellaria media; assay: Test Example 5: herbicidal effect by foliage application, plastic box (symbol P); settings: 320 g/ha, 3 weeks after application
From the text: as §1, §2

[12] = test system: Galium spurium; assay: Test Example 5: herbicidal effect by foliage application, plastic box (symbol Q); settings: 320 g/ha, 3 weeks after application
From the text: as §1, §2

[13] = test system: Veronica persica; assay: Test Example 5: herbicidal effect by foliage application, plastic box (symbol R); settings: 320 g/ha, 3 weeks after application
From the text: as §1, §2

[14] = test system: corn; assay: Test Example 5: effect on crop by foliage application, plastic box (symbol c); settings: 320 g/ha, 3 weeks after application
From the text: as §1
(§3) Sterilized diluvial soil was placed in a plastic box having a length of 21 cm, a width of 13 cm, and a depth of 7 cm. Each of the seeds of Digitaria ciliaris, Setaria viridis, Echinochloa crus-galli var. crus-galli, Avena fatua, Alopecurus myosuroides, Lolium multiflorum Lam., Apera spica-venti, Abutilon theophrasti, Amaranthus retroflexus, Chenopodium album, Stellaria media, Galium spurium, Veronica persica, corn, soybean, rice plant, wheat, beet, and rapeseed was sowed in a spot-like manner and was covered with the soil of a thickness of about 1.5 cm. Thereafter, the plants were grown in the greenhouse of 25° C. to 30° C.

[15] = test system: soybean; assay: Test Example 5: effect on crop by foliage application, plastic box (symbol d); settings: 320 g/ha, 3 weeks after application
From the text: as §1, §3

[16] = test system: rice plant; assay: Test Example 5: effect on crop by foliage application, plastic box (symbol b); settings: 320 g/ha, 3 weeks after application
From the text: as §1, §3

[17] = test system: wheat; assay: Test Example 5: effect on crop by foliage application, plastic box (symbol e); settings: 320 g/ha, 3 weeks after application
From the text: as §1, §3

[18] = test system: beet; assay: Test Example 5: effect on crop by foliage application, plastic box (symbol f); settings: 320 g/ha, 3 weeks after application
From the text: as §1, §3

[19] = test system: rapeseed; assay: Test Example 5: effect on crop by foliage application, plastic box (symbol g); settings: 320 g/ha, 3 weeks after application
From the text: as §1, §3

[20] = test system: Echinochloa oryzacola Vasing.; assay: Test Example 1: herbicidal activity, application before weed generation in submerged conditions (symbol A); settings: application herbicide amount 320 g/ha
From the text: (§4) Herbicidal Activity Test by Application Before Weed Generation in Submerged Conditions
(§5) After alluvial soil was placed into 1/10000 are of Wagner pot, water was poured and mixed to form a submerged condition having a water depth of 4 cm. Seeds of Echinochloa oryzacola Vasing., Scirpus juncoides, and Monochoria vaginalis were sowed in a mixed manner in the above pot and thereafter 2.5 leaf stage rice plant seedlings were transplanted thereto. On the day of sowing seeds, the emulsion agent of the compound of the present invention prepared in accordance with Formulation Example 2 was diluted with water so as to be a predetermined herbicide amount and the diluted emulsion agent was applied to the surface of the water. The pot was placed in a greenhouse of 25° C. to 30° C. to grow plant. 3 weeks later from the herbicide application, the effect to each plant was investigated in accordance with the following criteria.
(§6) 5 Herbicidal ratio of 90% or more (almost completely withered)
(§7) 4 Herbicidal ratio of 70% or higher and lower than 90%
(§8) 3 Herbicidal ratio of 40% or higher and lower than 70%
(§9) 2 Herbicidal ratio of 20% or higher and lower than 40%
(§10) 1 Herbicidal ratio of 5% or higher and lower than 20%
(§11) 0 Herbicidal ratio of 5% or lower (almost no effect)

[21] = test system: Scirpus juncoides; assay: Test Example 1: herbicidal activity, application before weed generation in submerged conditions (symbol B); settings: application herbicide amount 320 g/ha
From the text: as §4, §5, §6, §7, §8, §9, §10, §11

[22] = test system: transplanted rice plant; assay: Test Example 1: effect on crop, application before weed generation in submerged conditions (symbol a); settings: application herbicide amount 320 g/ha
Experimental: as §4
as §5, with “On the day of sowing seeds, the emulsion agent of the compound of the present invention prepared in accordance with Formulation Example 2 was diluted with water so as to be a predetermined herbicide amount and the diluted emulsion agent was applied to the surface of the water.” left out
as §6, §7, §8, §9, §10, §11

[23] = test system: Echinochloa oryzacola Vasing.; assay: Test Example 2: herbicidal activity, application during weed generation in submerged conditions (symbol A); settings: Table 23; application herbicide amount 320 g/ha; grade 0-5 by criteria of Test Example 1
Experimental: (§12) Herbicidal Activity Test by Application During Weed Generation in Submerged Conditions
as §5, with “the pot was placed in the greenhouse of 25° C. to 30° C. to grow the plants. When Echinochloa oryzacola Vasing., Scirpus juncoides, and Monochoria vaginalis were grown to one” for “thereafter 2.5”, “to two leaf stage,” for “rice plant seedlings were transplanted thereto. On the day of sowing seeds,”, “water.” for “water. The pot was placed in a greenhouse of 25° C. to 30° C. to grow plant.”, “criteria of Test Example 1.” for “following criteria.”

[24] = test system: Scirpus juncoides; assay: Test Example 2: herbicidal activity, application during weed generation in submerged conditions (symbol B); settings: Table 23; application herbicide amount 320 g/ha; grade 0-5 by criteria of Test Example 1
Experimental: as §12
as §5, with “the pot was placed in the greenhouse of 25° C. to 30° C. to grow the plants. When Echinochloa oryzacola Vasing., Scirpus juncoides, and Monochoria vaginalis were grown to one” for “thereafter 2.5”, “to two leaf stage,” for “rice plant seedlings were transplanted thereto. On the day of sowing seeds,”, “water.” for “water. The pot was placed in a greenhouse of 25° C. to 30° C. to grow plant.”, “criteria of Test Example 1.” for “following criteria.”

[25] = test system: Monochoria vaginalis; assay: Test Example 2: herbicidal activity, application during weed generation in submerged conditions (symbol C); settings: Table 23; application herbicide amount 320 g/ha; grade 0-5 by criteria of Test Example 1
Experimental: as §12
as §5, with “the pot was placed in the greenhouse of 25° C. to 30° C. to grow the plants. When Echinochloa oryzacola Vasing., Scirpus juncoides, and Monochoria vaginalis were grown to one” for “thereafter 2.5”, “to two leaf stage,” for “rice plant seedlings were transplanted thereto. On the day of sowing seeds,”, “water.” for “water. The pot was placed in a greenhouse of 25° C. to 30° C. to grow plant.”, “criteria of Test Example 1.” for “following criteria.”

[26] = test system: Echinochloa crus-galli var. crus-galli; assay: Test Example 3: herbicidal effect by foliage application, Wagner pot (symbol H); settings: application herbicide amount 320 g/ha
Experimental: as §1
(§13) After alluvial soil was placed into 1/10000 are of Wagner pot, water was poured and mixed to form a submerged condition having a water depth of 0.1 cm to 0.5 cm. Seeds of Echinochloa crus-galli var. crus-galli, Leptochloa chinensis, Cyperus difformis, and rice were sowed and the pot was placed in the greenhouse of 25° C. to 30° C. to grow the plants. After the plants were grown for 14 days, the emulsion agent of the compound of the present invention prepared in accordance with Formulation Example 2 was diluted with water so as to be a predetermined herbicide amount and the diluted emulsion agent was uniformly applied to a foliage part with a small-size spray. 3 weeks later from the herbicide application, the effect to each plant was investigated in accordance with the criteria of Test Example 1.

[27] = test system: Leptochloa chinensis; assay: Test Example 3: herbicidal effect by foliage application, Wagner pot (symbol D); settings: application herbicide amount 320 g/ha
Experimental: as §1, §13

[28] = test system: Cyperus difformis; assay: Test Example 3: herbicidal effect by foliage application, Wagner pot (symbol E); settings: application herbicide amount 320 g/ha
Experimental: as §1, §13

[29] = test system: directly sowed rice plant; assay: Test Example 3: effect on crop by foliage application, Wagner pot (symbol b); settings: application herbicide amount 320 g/ha
Experimental: as §1
After alluvial soil was placed into 1/10000 are of Wagner pot, water was poured and mixed to form a submerged condition having a water depth of 0.1 cm to 0.5 cm. Seeds of Echinochloa crus-galli var. crus-galli, Leptochloa chinensis, Cyperus difformis, and rice were sowed and the pot was placed in the greenhouse of 25° C. to 30° C. to grow the plants.

**Q.** What does the source list for `CON=C(C)CC1CC(OC(=O)N(c2ccccc2)C(C)C)=C(c2c(C)cc(C)cc2C)C1=O` (centres unmarked) [1-127]?
**A.** F: Digitaria ciliaris, herbicidal effect (criteria 0-5) [1]: 0 (Herbicidal ratio of 5% or lower (almost no effect)); G: Setaria viridis, herbicidal effect (criteria 0-5) [2]: 0 (Herbicidal ratio of 5% or lower (almost no effect)); H: Echinochloa crus-galli var. crus-galli, herbicidal effect (criteria 0-5) [3]: 0 (Herbicidal ratio of 5% or lower (almost no effect)); I: Avena fatua, herbicidal effect (criteria 0-5) [4]: 0 (Herbicidal ratio of 5% or lower (almost no effect)); J: Alopecurus myosuroides, herbicidal effect (criteria 0-5) [5]: 1 (Herbicidal ratio of 5% or higher and lower than 20%); K: Lolium multiflorum Lam., herbicidal effect (criteria 0-5) [6]: 1 (Herbicidal ratio of 5% or higher and lower than 20%); L: Apera spica-venti, herbicidal effect (criteria 0-5) [7]: 0 (Herbicidal ratio of 5% or lower (almost no effect)); M: Abutilon theophrasti, herbicidal effect (criteria 0-5) [8]: 0 (Herbicidal ratio of 5% or lower (almost no effect)); N: Amaranthus retroflexus, herbicidal effect (criteria 0-5) [9]: 0 (Herbicidal ratio of 5% or lower (almost no effect)); O: Chenopodium album, herbicidal effect (criteria 0-5) [10]: 0 (Herbicidal ratio of 5% or lower (almost no effect)); P: Stellaria media, herbicidal effect (criteria 0-5) [11]: 0 (Herbicidal ratio of 5% or lower (almost no effect)); Q: Galium spurium, herbicidal effect (criteria 0-5) [12]: 0 (Herbicidal ratio of 5% or lower (almost no effect)); R: Veronica persica, herbicidal effect (criteria 0-5) [13]: 0 (Herbicidal ratio of 5% or lower (almost no effect)); c: corn, effect on crop (criteria 0-5) [14]: 0 (Herbicidal ratio of 5% or lower (almost no effect)); d: soybean, effect on crop (criteria 0-5) [15]: 0 (Herbicidal ratio of 5% or lower (almost no effect)); b: directly sowed rice plant, effect on crop (criteria 0-5) [16]: 0 (Herbicidal ratio of 5% or lower (almost no effect)); e: wheat, effect on crop (criteria 0-5) [17]: 0 (Herbicidal ratio of 5% or lower (almost no effect)); f: beet, effect on crop (criteria 0-5) [18]: 0 (Herbicidal ratio of 5% or lower (almost no effect)); g: rapeseed, effect on crop (criteria 0-5) [19]: 0 (Herbicidal ratio of 5% or lower (almost no effect))

**Q.** What does the source list for `CON=C(C)CC1CC(O)=C(c2c(C)cc(SC)cc2C)C1=O` (centres unmarked) [6-024]?
**A.** Herbicidal effect grade, A: Echinochloa oryzacola Vasing. [20]: 3 (Herbicidal ratio of 40% or higher and lower than 70%); Herbicidal effect grade, B: Scirpus juncoides [21]: 2 (Herbicidal ratio of 20% or higher and lower than 40%); Effect grade on crop, a: transplanted rice plant [22]: 3 (Herbicidal ratio of 40% or higher and lower than 70%); Herbicidal effect grade, A: Echinochloa oryzacola Vasing. [23]: 1 (Herbicidal ratio of 5% or higher and lower than 20%); Herbicidal effect grade, B: Scirpus juncoides [24]: 0 (Herbicidal ratio of 5% or lower (almost no effect)); Herbicidal effect grade, C: Monochoria vaginalis [25]: 0 (Herbicidal ratio of 5% or lower (almost no effect)); herbicidal effect on H (Echinochloa crus-galli var. crus-galli), grade 0-5 [26]: 3 (Herbicidal ratio of 40% or higher and lower than 70%); herbicidal effect on D (Leptochloa chinensis), grade 0-5 [27]: 2 (Herbicidal ratio of 20% or higher and lower than 40%); herbicidal effect on E, grade 0-5 [28]: 3 (Herbicidal ratio of 40% or higher and lower than 70%); effect on crop b (directly sowed rice plant), grade 0-5 [29]: 3 (Herbicidal ratio of 40% or higher and lower than 70%)
